Test results published in article PMC10246721, “Cryo-EM structures for the Mycobacterium tuberculosis iron-loaded siderophore transporter IrtAB” (Protein & Cell, 2022).

Tests used:
[1] = molecular target: T1, IrtABΔSID (SID-truncated IrtAB) (Mycobacterium tuberculosis, UniProt P9WQJ7+P9WQJ9)
T1 construct: gene irtA

[2] = molecular target: T1, IrtABΔSID (SID-truncated IrtAB); remark: listed apart in the source

SMILES	cryo-EM structure [1]	ATPase activity, phosphate release (MAK-113) [2]
Nc1ncnc2c1ncn2[C@@H]1O[C@H](COP(=O)(O)OP(=O)(O)O)[C@@H](O)[C@H]1O [ADP]	we also solved the structure of IrtABΔSID in complex with ADP	
Nc1ncnc2c1ncn2[C@@H]1O[C@H](COP(=O)(O)OP(=O)(O)OP(=O)(O)O)[C@@H](O)[C@H]1O [ATP]		ATPase activity of IrtABΔSID is comparable to that of the wild-type (WT) protein
